From PubChem BioAssay AID248 (DTP/NCI, 2004)
Inconclusive results and toxic doses are left out. Cut-off read from the data, not from the text of the source: active = T/C of 150% or more; inactive = T/C below 125%.

System: L1210 leukemia ip in BDF1 mice, survival T/C
Assay: NCI In Vivo Anticancer Drug Screen. Data for tumor model L1210 Leukemia (intraperitoneal) in B6D2F1 (BDF1) mice
Details: endpoint: mean survival time, higher = longer survival
Procedure, shortened: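 Ratio derived from survival: compound-dosed mice over vehicle-dosed mice, all bearing a transplantable tumor.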

[1] = dose: 75.0 mg/kg/injection, schedule: Q04DX003 (ip), vehicle: saline
[2] = dose: 150.0 mg/kg/injection, schedule: Q04DX003 (ip), vehicle: saline
[3] = dose: 50.0 mg/kg/injection, schedule: Q04DX003 (ip), vehicle: saline
[4] = dose: 100.0 mg/kg/injection, schedule: Q04DX003 (ip), vehicle: saline
[5] = dose: 200.0 mg/kg/injection, schedule: Q04DX003 (ip), vehicle: saline
[6] = dose: 400.0 mg/kg/injection, schedule: Q04DX002 (ip), vehicle: saline with Tween-80
[7] = dose: 400.0 mg/kg/injection, schedule: Q04DX003 (ip), vehicle: saline
[8] = dose: 100.0 mg/kg/injection, schedule: Q01DX009 (ip), vehicle: Klucel (hydroxypropylcellulose) (HPC)
[9] = dose: 100.0 mg/kg/injection, schedule: Q04DX003 (ip), vehicle: Klucel (hydroxypropylcellulose) (HPC)
[10] = dose: 200.0 mg/kg/injection, schedule: Q01DX009 (ip), vehicle: Klucel (hydroxypropylcellulose) (HPC)
[11] = dose: 200.0 mg/kg/injection, schedule: Q04DX003 (ip), vehicle: Klucel (hydroxypropylcellulose) (HPC)
[12] = dose: 400.0 mg/kg/injection, schedule: Q01DX009 (ip), vehicle: Klucel (hydroxypropylcellulose) (HPC)
[13] = dose: 400.0 mg/kg/injection, schedule: Q04DX003 (ip), vehicle: Klucel (hydroxypropylcellulose) (HPC)
[14] = dose: 100.0 mg/kg/injection, schedule: Q04DX003 (ip), vehicle: saline with Tween-80
[15] = dose: 200.0 mg/kg/injection, schedule: Q04DX003 (ip), vehicle: saline with Tween-80
[16] = dose: 400.0 mg/kg/injection, schedule: Q04DX003 (ip), vehicle: saline with Tween-80
[17] = dose: 100.0 mg/kg/injection, schedule: Q01DX009 (ip), vehicle: saline
[18] = dose: 200.0 mg/kg/injection, schedule: Q01DX009 (ip), vehicle: saline
[19] = dose: 400.0 mg/kg/injection, schedule: Q01DX009 (ip), vehicle: saline

Measured: T/C

CCN(CC)CCNC(=O)c1c2nc3c(C(=O)NCCN(CC)CC)ccc(C)c3oc-2c(C)c(=O)c1N
inactive: dose: 25.0 mg/kg/injection, schedule: Q04DX002 (ip), vehicle: Klucel (hydroxypropylcellulose) (HPC) 101 % of control | dose: 50.0 mg/kg/injection, schedule: Q04DX002 (ip), vehicle: Klucel (hydroxypropylcellulose) (HPC) 97 % of control | dose: 75.0 mg/kg/injection, schedule: Q01DX001 (ip), vehicle: carboxymethylcellulose (CMC) 105 % of control | dose: 100.0 mg/kg/injection, schedule: Q04DX002 (ip), vehicle: Klucel (hydroxypropylcellulose) (HPC) 94 % of control

C/C(=N\Nc1nc2ccccc2s1)c1ccc2c(c1)Sc1ccccc1O2
inactive: [1] 87 % of control | [2] 90 % of control

CCCCN=C=NCCCC
inactive: dose: 0.05 mg/kg/injection, schedule: Q01DX Z (ip), vehicle: saline 96 % of control | dose: 0.08 mg/kg/injection, schedule: Q01DX Z (ip), vehicle: saline 90 % of control | dose: 0.12 mg/kg/injection, schedule: Q01DX Z (ip), vehicle: saline 104 % of control | dose: 100.0 mg/kg/injection, schedule: Q01DX001 (ip), vehicle: Klucel (hydroxypropylcellulose) (HPC) 93 % of control | dose: 200.0 mg/kg/injection, schedule: Q01DX001 (ip), vehicle: Klucel (hydroxypropylcellulose) (HPC) 93 % of control

C[N+]1(Cc2c[nH]c3ccsc23)CCCCC1
inactive: dose: 3.0 mg/kg/injection, schedule: Q01DX009 (ip), vehicle: saline with Tween-80 99 % of control | dose: 6.0 mg/kg/injection, schedule: Q01DX009 (ip), vehicle: saline with Tween-80 97 % of control | dose: 12.0 mg/kg/injection, schedule: Q01DX009 (ip), vehicle: saline with Tween-80 90 % of control | dose: 12.5 mg/kg/injection, schedule: Q04DX003 (ip), vehicle: saline with Tween-80 101 % of control

[Cl][Pt+2][Cl].[NH-]C1CCCCC1.[NH-]C1CCCCC1
inactive: dose: 25.0 mg/kg/injection, schedule: Q04DX003 (ip), vehicle: saline 100 % of control | dose: 40.0 mg/kg/injection, schedule: Q04DX003 (ip), vehicle: Klucel (hydroxypropylcellulose) (HPC) 103 % of control | [3] 110 % of control | dose: 80.0 mg/kg/injection, schedule: Q04DX003 (ip), vehicle: Klucel (hydroxypropylcellulose) (HPC) 103 % of control | dose: 100.0 mg/kg/injection, schedule: Q04DX002 (ip), vehicle: saline with Tween-80 94 % of control | [4] 103 % of control | dose: 160.0 mg/kg/injection, schedule: Q04DX003 (ip), vehicle: Klucel (hydroxypropylcellulose) (HPC) 101 % of control | dose: 200.0 mg/kg/injection, schedule: Q04DX002 (ip), vehicle: saline with Tween-80 117 % of control | [5] 108 % of control | dose: 320.0 mg/kg/injection, schedule: Q04DX003 (ip), vehicle: Klucel (hydroxypropylcellulose) (HPC) 106 % of control | [6] 102 % of control | [7] 108 % of control | dose: 640.0 mg/kg/injection, schedule: Q04DX003 (ip), vehicle: Klucel (hydroxypropylcellulose) (HPC) 102 % of control

O=[N+]([O-])c1cc(Cl)cc2c1-c1c(Cl)cc(Cl)cc1C2Br (stereo not drawn)
inactive: [8] 101 % of control | [9] 98 % of control | [10] 104 % of control | [11] 96 % of control | [12] 103 % of control | [13] 93 % of control

CC(=O)CC(C)=Nc1ccc([N+](=O)[O-])cc1
inactive: [14] 101 % of control | [15] 103 % of control | [16] 89 % of control

Cc1ccc(C(c2ccc(C)cc2)C(Cl)Cl)cc1
inactive: dose: 100.0 mg/kg/injection, schedule: Q01DX009 (ip), vehicle: saline with Tween-80 96 % of control | dose: 200.0 mg/kg/injection, schedule: Q01DX009 (ip), vehicle: saline with Tween-80 109 % of control | dose: 400.0 mg/kg/injection, schedule: Q01DX009 (ip), vehicle: saline with Tween-80 107 % of control

Cc1c2ccncc2c(C)c2c1oc1ccccc12
inactive: dose: 200.0 mg/kg/injection, schedule: Q01DX009 (ip), vehicle: other 91 % of control | dose: 400.0 mg/kg/injection, schedule: Q01DX009 (ip), vehicle: other 95 % of control

c1ccc(-c2c[n+]3cc4ccccc4cc3cn2)cc1
inactive: [17] 91 % of control | [4] 100 % of control | [18] 96 % of control | [5] 96 % of control | [19] 97 % of control | [7] 98 % of control

ClC(Cl)=C(Cl)c1ccccc1
inactive: dose: 25.6 mg/kg/injection, schedule: Q04DX002 (ip), vehicle: saline with Tween-80 93 % of control | dose: 64.0 mg/kg/injection, schedule: Q04DX002 (ip), vehicle: saline with Tween-80 87 % of control | [14] 98 % of control | dose: 160.0 mg/kg/injection, schedule: Q04DX002 (ip), vehicle: saline with Tween-80 90 % of control | [15] 93 % of control | [6] 93 % of control | [16] 93 % of control

O=C(Nc1c[nH]c(=O)[nH]c1=O)C(F)(F)F
inactive: dose: 50.0 mg/kg/injection, schedule: Q01DX009 (ip), vehicle: saline 100 % of control | [3] 103 % of control | [17] 96 % of control | [4] 104 % of control | [18] 92 % of control | [5] 108 % of control

COC(=O)C1CC(OC(C)=O)C(C(N)=O)C1 (stereo not drawn)
inactive: [17] 101 % of control | [18] 111 % of control | [19] 101 % of control

COc1ccc(Cl)cc1NC(=O)Nc1ccc(Cl)cc1Cl
inactive: [8] 94 % of control | [9] 111 % of control | [10] 96 % of control | [11] 91 % of control | [12] 94 % of control | [13] 94 % of control

CCCCCCC[n+]1cccc(C#N)c1
inactive: dose: 37.5 mg/kg/injection, schedule: Q04DX003 (ip), vehicle: saline 96 % of control | dose: 75.0 mg/kg/injection, schedule: Q01DX001 (ip), vehicle: saline 96 % of control | [1] 98 % of control | dose: 150.0 mg/kg/injection, schedule: Q01DX001 (ip), vehicle: saline 100 % of control | [2] 95 % of control

O=C(NCc1ccccc1)c1ccc(C(=O)NCc2ccccc2)cc1
inactive: dose: 100.0 mg/kg/injection, schedule: Q01DX001 (ip), vehicle: other 90 % of control | dose: 200.0 mg/kg/injection, schedule: Q01DX001 (ip), vehicle: other 88 % of control | dose: 400.0 mg/kg/injection, schedule: Q01DX001 (ip), vehicle: other 96 % of control
